The test system of series [1] is mouse models of colon cancer, breast cancer, pancreatic cancer and sarcoma. To be noted: Oncoimmunology 2017; cited from earlier work.
Series [2] has as its system mouse colon cancer cells CT26. Briefly: CT26 subcutaneous tumor-bearing model, Balb/c mice. In kind it is in vivo. To be noted: female Balb/c mice, 75 mg/kg/day; for Inhibitory effect on growth of subcutaneous CT26 colon cancer: 14 days, vs negative control, FIG. 3. As for the experimental part: 2×10^6 mouse colon cancer cells CT26 were subcutaneously injected into right side of each mouse's back (female Balb/c mouse, 6-8 weeks). The length and width of subcutaneous tumors in the back of mice were measured using vernier calipers, and tumor volume (mm^3)=(length(mm)×width(mm)×width(mm)×n)/6 was calculated. […] The volume of subcutaneous tumors on the back of mice was measured and counted twice a week. Continuous administrated for a period of 14 days and the changes of tumor volumes were recorded.
(§1) Mouse colon cancer cells MC38, pancreatic cancer cells Pan02, breast cancer cells 4T1, prostate cancer cells RM-1 and colon cancer cells CT26 were cultivated to required amount. Then, cells at a cell density of 5×10^5-2×10^6 were subcutaneously injected into right side of the back of selected female C57BL/6 mice aging 6-8 weeks (MC38, Pan02), male C57BL/6 mice aging 6-8 weeks (RM-1), female Balb/c mice aging 6-8 weeks (4T1, CT26) and female Balb/c nude mice aging 6-8 weeks (CT26). The length and width of subcutaneous tumors in the backs of mice were measured using vernier calipers, and tumor volume(mm^3)=(length(mm)×width(mm)×width(mm)×n)/6 was calculated. […] The volume of subcutaneous tumors on the back of mice was measured and counted 2-4 times a week. Continuous administrated for 12-22 days and the changes of tumor volumes were recorded.

In series [3] the target is T1, human prostaglandin E2 receptor EP2 subtype (Homo sapiens, UniProt P43116).
T1 construct: expressed in transfected cells; host or cells: CHO-K1-Gα16
T1 sequence (P43116 whole entry): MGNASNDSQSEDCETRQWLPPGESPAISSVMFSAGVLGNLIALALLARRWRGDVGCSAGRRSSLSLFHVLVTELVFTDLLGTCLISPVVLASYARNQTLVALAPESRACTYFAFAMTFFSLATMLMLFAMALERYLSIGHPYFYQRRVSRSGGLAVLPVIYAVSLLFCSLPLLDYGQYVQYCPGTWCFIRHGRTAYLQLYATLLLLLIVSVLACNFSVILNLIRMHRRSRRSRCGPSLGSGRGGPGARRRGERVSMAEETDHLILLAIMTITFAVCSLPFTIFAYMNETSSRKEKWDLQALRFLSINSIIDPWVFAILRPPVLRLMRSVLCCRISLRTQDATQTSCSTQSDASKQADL
Briefly: Calcium flux of human prostaglandin E2 receptor EP2 subtype. In kind it is cell-based. Particulars: CHO-K1-Gα16 cells overexpressing human EP2, activated by prostaglandin E2; read-out: hEP2 Ca^2+ IC50. The protocol:
(§2) CHO-K1-Gα16 cells at the logarithmic growth phase were transfected with human prostaglandin E2 Receptor subtypes EP1, EP2 or EP3 overexpressing vector by Lipofectamine 2000, then seeded in a 96-well plate (Falcon, CA) at a density of 20000 cells per 100 μL culture medium for overnight culture. On the second day, every single well were added with 100 μL calcium 5 detection reagents (Molecular Devices) and incubated in incubator at 37° C., 5% CO2 for 45 minutes. The compounds were diluted with HBSS detection buffer, then were added to 96-well plates. After 20 min incubation at room temperature in the dark, prostaglandin E2 at certain concentration was used to activate calcium flux of cells for detection (Flexstation 3, MD, CA).
(§3) Calculate the IC50 of the compounds of the invention in inhibiting the calcium flux of human EP1, EP2, and EP3 receptor (i.e. the concentration of drugs at which the intracellular Ca^2+ flux being inhibited by half after overexpressing human EP1, EP2, and EP3 receptors in CHO-K1-Gα16 cells). The IC50 of the drugs were calculated using GraphPad Prism 5.
For orientation: Calcium flux is commonly read through the fluorescence of an indicator in the cells.

Series [4] concerns pancreatic cancer cells Pan02. Briefly: Pan02 subcutaneous tumor-bearing model, C57BL/6 mice. The format is in vivo, mouse. To be noted: female C57BL/6 mice, 75 mg/kg/day, 12-22 days, FIG. 4.
Text: as §1

A short description of series [5]: Cytotoxicity evaluation (CCK8), EMT-6. To be noted: mouse, EMT-6 breast cancer cells.
Protocol: (§6) Cells with a density of 2000-8000 cells per 100 μL medium were seeded in 96-well plates (Falcon, CA) and incubated for 24 hours, then treated with drugs having different concentration gradient (at least 4 replicates per concentration) and incubated at 37° C. in 5% CO2 incubator for 72 hours. Then cell viability was detected by CCK8 method. That is to say, add 10 μL CCK8 to each well and incubate for 0.33-2 h, and the OD values are read by microplate reader at 450 nm. The inhibition rate on cell survival of compounds with each concentration were calculated.
(§7) Inhibition rate on cell survival=(OD value of groups with each concentration/OD
(§8) value of control group)×100%±standard deviation.
(§9) The IC50 of drugs were calculated using GraphPad Prism 5.0.
The nature of series [6]: Cytotoxicity evaluation (CCK8), MOSJ. To be noted: mouse, MOSJ osteosarcoma cells.
Protocol: as §6, §7, §8, §9
The test system of series [7] is prostate cancer cells RM-1. Briefly: RM-1 subcutaneous tumor-bearing model, C57BL/6 mice. The format is in vivo, mouse. Particulars: male C57BL/6 mice, 75 mg/kg/day, 12-22 days, FIG. 4.
Text: as §1

For the next series, the system named is colon cancer cells CT26. Briefly: CT26 subcutaneous tumor-bearing model, Balb/c nude mice. The format is in vivo, mouse. To be noted: female Balb/c nude mice, 75 mg/kg/day.
Text: as §1

Series [8] can be described thus: Cytotoxicity evaluation (CCK8), LLC. To be noted: mouse, LLC lung cancer cells.
Protocol: as §6, §7, §8, §9
Series [9] in a line: Cytotoxicity evaluation (CCK8), 293. To be noted: human.
The target in series [10] is T2, human prostaglandin E2 receptor EP1 subtype (Homo sapiens, UniProt P34995).
T2 construct: expressed in transfected cells; host or cells: CHO-K1-Gα16
T2 sequence (P34995 1-402): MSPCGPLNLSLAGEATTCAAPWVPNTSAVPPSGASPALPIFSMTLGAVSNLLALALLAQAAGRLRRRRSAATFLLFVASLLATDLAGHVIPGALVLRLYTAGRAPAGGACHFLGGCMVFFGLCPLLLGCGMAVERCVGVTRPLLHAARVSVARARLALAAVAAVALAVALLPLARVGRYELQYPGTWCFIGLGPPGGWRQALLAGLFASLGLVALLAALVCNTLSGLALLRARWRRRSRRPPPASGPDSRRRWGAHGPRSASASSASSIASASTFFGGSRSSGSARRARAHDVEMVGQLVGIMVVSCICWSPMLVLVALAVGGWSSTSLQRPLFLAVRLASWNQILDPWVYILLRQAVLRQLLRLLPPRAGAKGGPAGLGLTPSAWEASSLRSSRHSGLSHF
Briefly: Calcium flux of human prostaglandin E2 receptor EP1 subtype. The format is cell-based. To be noted: CHO-K1-Gα16 cells overexpressing human EP1, activated by prostaglandin E2; read-out: hEP1 Ca^2+ IC50. The protocol:
as §2, §3

The test system of another series is breast cancer cells 4T1. The series can be described thus: 4T1 subcutaneous tumor-bearing model, Balb/c mice. In kind it is in vivo, mouse. To be noted: female Balb/c mice, 75 mg/kg/day, 12-22 days, FIG. 4.
Text: as §1

Series [11] in a line: Cytotoxicity evaluation (CCK8), PANC02. Particulars: mouse, PANC02 pancreatic cancer cells.
Protocol: as §6, §7, §8, §9
Series [12] deals with mouse colon cancer cells MC38. The series can be described thus: MC38 subcutaneous tumor-bearing model, C57BL/6 mice. The format is in vivo. To be noted: female C57BL/6 mice, 75 mg/kg/day, 12-22 days, FIG. 4.
Text: as §1

Series [13] in a line: Cytotoxicity evaluation (CCK8), CT26. To be noted: mouse, CT26 intestinal cancer cells.
Protocol: as §6, §7, §8, §9
For series [14], the target named is T3, human prostaglandin E2 receptor EP3 subtype (Homo sapiens, UniProt P43115).
T3 construct: expressed in transfected cells; host or cells: CHO-K1-Gα16
T3 sequence (P43115 1-390): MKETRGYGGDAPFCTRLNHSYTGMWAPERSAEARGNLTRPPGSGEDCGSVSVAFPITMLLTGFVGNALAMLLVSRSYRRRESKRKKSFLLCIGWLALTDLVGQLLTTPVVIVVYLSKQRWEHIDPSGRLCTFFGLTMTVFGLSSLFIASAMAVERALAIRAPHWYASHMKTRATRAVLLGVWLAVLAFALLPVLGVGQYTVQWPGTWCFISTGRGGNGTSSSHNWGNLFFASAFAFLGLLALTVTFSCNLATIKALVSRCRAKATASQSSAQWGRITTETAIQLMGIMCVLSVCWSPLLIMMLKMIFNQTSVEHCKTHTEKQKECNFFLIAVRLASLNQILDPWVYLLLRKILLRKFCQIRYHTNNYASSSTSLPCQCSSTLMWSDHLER
The series can be described thus: Calcium flux of human prostaglandin E2 receptor EP3 subtype. The format is cell-based. Particulars: CHO-K1-Gα16 cells overexpressing human EP3, activated by prostaglandin E2; read-out: hEP3 Ca^2+ IC50. The protocol:
as §2, §3

The target in series [15] is T4, human PGE2 receptor EP4 subtype (hEP4) (Homo sapiens, UniProt P35408).
T4 construct: expressed in transfected cells; host or cells: CHO-K1-Gα16
T4 sequence (P35408 whole entry): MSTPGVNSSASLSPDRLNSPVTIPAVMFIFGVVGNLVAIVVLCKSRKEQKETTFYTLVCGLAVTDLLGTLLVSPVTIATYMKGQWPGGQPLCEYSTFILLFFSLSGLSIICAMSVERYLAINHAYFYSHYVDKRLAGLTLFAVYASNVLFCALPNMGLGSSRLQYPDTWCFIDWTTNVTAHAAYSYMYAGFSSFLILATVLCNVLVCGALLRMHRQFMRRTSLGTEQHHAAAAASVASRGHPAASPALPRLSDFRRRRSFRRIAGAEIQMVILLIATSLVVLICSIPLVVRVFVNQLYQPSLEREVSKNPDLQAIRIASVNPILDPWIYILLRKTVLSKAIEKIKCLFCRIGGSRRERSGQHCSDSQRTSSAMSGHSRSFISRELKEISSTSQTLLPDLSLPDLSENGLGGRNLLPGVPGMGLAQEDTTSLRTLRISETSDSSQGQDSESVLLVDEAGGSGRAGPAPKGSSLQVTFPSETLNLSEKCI
Briefly: Calcium flux of human prostaglandin E2 receptor EP4 subtype. The format is cell-based. Particulars: CHO-K1-Gα16 cells overexpressing hEP4, calcium flux activated by prostaglandin E2; read-out: hEP4 Ca^2+ IC50. The protocol: (§4) CHO-K1-Gα16 cells at the logarithmic growth phase were transfected with EP4 overexpressing vector by Lipofectamine 2000 and then seeded in a 96-well plate (Falcon, CA) and cultured at 20000 cells per 100 μL culture medium overnight. On the second day, every single well were added with 100 μL calcium 5 detection reagents (Molecular Devices) and incubated in incubator at 37° C., 5% CO2 for 45 minutes. The compounds were diluted in HBSS detection buffer, then added to 96-well plates. After incubated for 20 min at room temperature away from light, certain concentration of prostaglandin E2 was used to activate calcium flux of cells for detection (Flexstation 3, MD, CA).
(§5) Calculate the IC50 of the compounds of the invention in inhibiting the calcium flux of human PGE2 receptor EP4 subtype (hEP4) and mouse PGE2 receptor EP4 subtype (mEP4) (i.e. the concentration of drugs at which the intracellular Ca^2+ flux is inhibited by half after overexpressing hEP4 and mEP4 receptors in CHO-K1-Gα16 cells). The IC50 of the drugs were calculated using GraphPad Prism 5.

Series [16] addresses T5, mouse PGE2 receptor EP4 subtype (mEP4) (Mus musculus, UniProt P32240).
T5 construct: expressed in transfected cells; host or cells: CHO-K1-Gα16
Briefly: Calcium flux of mouse prostaglandin E2 receptor EP4 subtype. In kind it is cell-based. To be noted: CHO-K1-Gα16 cells overexpressing mEP4, calcium flux activated by prostaglandin E2; read-out: mEP4 Ca^2+ IC50. As for the experimental part:
as §4, §5

This is an account of results in US20210139497A1, “THIENOCYCLIC COMPOUND AND SYNTHESIS METHOD THEREFOR AND APPLICATION THEREOF” (SHANGHAI YUYAO BIOTECH LTD., priority 2017, published 2021).

For orientation: IC50 means the point on the concentration scale where inhibition reaches its midpoint.

T5 sequence (P32240 whole entry): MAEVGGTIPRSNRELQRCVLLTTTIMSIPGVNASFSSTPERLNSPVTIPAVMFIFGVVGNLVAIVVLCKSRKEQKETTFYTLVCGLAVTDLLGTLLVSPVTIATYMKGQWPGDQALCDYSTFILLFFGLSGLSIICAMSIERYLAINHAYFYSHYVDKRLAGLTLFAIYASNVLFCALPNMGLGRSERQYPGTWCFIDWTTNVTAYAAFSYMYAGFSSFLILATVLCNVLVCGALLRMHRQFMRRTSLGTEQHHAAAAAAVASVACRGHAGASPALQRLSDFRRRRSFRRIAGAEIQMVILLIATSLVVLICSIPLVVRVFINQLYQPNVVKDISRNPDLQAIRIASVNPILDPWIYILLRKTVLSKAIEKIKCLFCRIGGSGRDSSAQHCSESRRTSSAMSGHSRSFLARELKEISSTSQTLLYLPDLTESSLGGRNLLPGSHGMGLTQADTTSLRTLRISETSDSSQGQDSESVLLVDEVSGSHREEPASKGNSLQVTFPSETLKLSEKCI

Regarding `C[C@H](NC(=O)c1c(C(F)F)nn(C)c1Oc1cccc(C(F)(F)F)c1)c1ccc(C(=O)O)cc1` [Compound E7046, reference compound], the “Inhibitory effects in mouse tumor models” value in series [1] is given as “good inhibitory effects”. In addition, the “Inhibitory effect on growth of subcutaneous CT26 colon cancer” value (shortened to “Inhibitory effect on growth”) in [2] is recorded as “comparable with that of E7046”.
Take `C[C@H](NC(=O)c1c(Cc2ccc(F)cc2)sc2c1CCOC2)c1ccc(C(=O)O)cc1` [YJ114, (S)-4-(1-(2-(4-fluorobenzyl)-5,7-dihydro-4H-thieno[2,3-c]pyran-3-carboxamido)ethyl)benzoic Acid]: the half-inhibitory concentration (IC50) in series [3], in series [10] and in series [14] was above 10 µM throughout. Moreover, in series [4], the “Inhibition of growth of pancreatic cancer cells Pan02 in subcutaneous tumor-bearing mice” value is listed as “can efficiently inhibit the growth”. The half-inhibitory concentration (IC50) at 72 h in [5], in [6], in series [8], in series [9], in series [11] and in series [13] was above 100 µM throughout. In addition, the “Inhibition of growth of colon cancer cells CT26 in subcutaneous tumor-bearing mice” value in [2] (12 to 22-day administration (Example 6)) is on record as “can efficiently inhibit the growth”. Also, the “Inhibitory effect on growth” value in series [2] is on record as “able to suppress the growth”. Moreover, the “Inhibition of growth of prostate cancer cells RM-1 in subcutaneous tumor-bearing mice” value in series [7] was “can efficiently inhibit the growth”. For the same molecule, the “Inhibition of CT26 tumor growth in Balb/c nude mice with immune system deficiency” value with colon cancer cells CT26 is “can not inhibit the tumor growth”. For the same molecule, in the series with breast cancer cells 4T1, the “Inhibition of growth of breast cancer cells 4T1 in subcutaneous tumor-bearing mice” value is listed as “can efficiently inhibit the growth”. For the same molecule, the “Inhibition of growth of colon cancer cells MC38 in subcutaneous tumor-bearing mice” value in series [12] was “can efficiently inhibit the growth”.
In the case of `C[C@H](NC(=O)c1c(Cc2cccc(C(F)(F)F)c2)sc2c1CCOC2)c1ccc(C(=O)O)cc1` [YJ116, (S)-4-(1-(2-(3-(trifluoromethyl)benzyl)-5,7-dihydro-4H-thieno[2,3-c]pyran-3-carboxamido)ethyl)benzoic Acid], the IC50 in series [3] is above 10 µM; in series [10] it was above 10 µM; in series [15] it was below 0.1 µM; in [14], above 10 µM; in [16], below 0.1 µM. Further, the concentration for half-maximal inhibition (IC50) at 72 h in series [5], in [6], in series [8], in series [9], in [11] and in [13] was above 100 µM throughout. Also, in series [2], the “Inhibitory effect on growth” value was “able to suppress the growth”.
